Measured values reported in US11530190B2, “Compounds for treating mitochondrial disease” (Khondrion IP B.V., priority 2015, dated 2022).

What was measured:
[1] = system: cultured healthy human skin fibroblasts; settings: cited from earlier work
[2] = system: Primary human fibroblasts derived from a patient with mitochondrial disease; test: Cellular ROS levels after H2O2 induction, CM-H2DCFDA fluorescence; assay type: cell-based; settings: compound 10 μM, H2O2 100 μM; FIG. 3
Excerpt: Methods: CM-H2DCFDA is a cell-permeable reporter molecule for reactive oxygen species (ROS) that is converted into non-fluorescent and membrane-impermeable CM-H2DCF following removal of its acetate groups by intracellular esterases. Upon oxidation by ROS, CM-H2DCF is converted into fluorescent CM-DCF. It is widely accepted that a wide variety of ROS can be responsible for the CM-H2DCF oxidation, making it a suitable reporter of cellular oxidant levels. The average cellular CM-DCF fluorescence intensity is considered an indirect measure of cellular ROS levels.
The effect of the compounds on the intracellular ROS levels was measured in response to an induction of ROS by hydrogen peroxide. Primary human fibroblasts derived from a patient with mitochondrial disease were seeded at a density of 2500 cells/well in a 96-well format plate. […] Wells without cells were used to correct for the background fluorescence. The plate was read on a fluorescence plate reader (Fluostar Omega, BMG labtech) in a kinetic mode with a 2 min interval cycle. After 4 cycles, H2O2 (final concentration 100 μM) was added using onboard injectors and the fluorescence measurement was resumed for 1 hour. After background correction the fluorescence intensities were plotted as a function of time.

[3] = system: Primary human fibroblasts obtained from a patient with mitochondrial disease; test: Intracellular superoxide production, hydroethidine (HEt) fluorescence microscopy; assay type: cell-based; settings: approximately 24 hours with increasing concentrations, HEt 10 μM; FIG. 4A-E
Description: Methods: HEt (Hydroethidine) is a non-fluorescent compound, which can enter the cells freely. There it is oxidized by superoxide to its fluorescent products E^+ and 2OHE^+, which accumulate in negatively charged cellular compartments (i.e. nucleus and mitochondria). E^++2OHE^+ fluorescence is thus considered a measure of superoxide production within the cell.
The effect of the compounds on the intracellular superoxide levels was measured. Primary human fibroblasts obtained from a patient with mitochondrial disease were seeded at a density of 3000 cells/well in a 96-well format. The following day, the culture medium was replaced with 100 μl medium containing the compounds at different concentrations. After approximately 24 hours the cells were incubated with 100 μL medium without FBS and phenol red and containing HEt at a final concentration 10 μM (Life Technologies). The cell culture plate containing HEt was placed for 10 minutes at 37° C., 5% CO2. Next, the cells were washed twice with medium, placed in culture medium without FBS and phenol red and visualized by fluorescence microscopy (BD Pathway 855, BDBiosciences). From the obtained images superoxide levels were analysed using Image Pro plus (Media Cybernetics) software.

[4] = system: primary human fibroblasts derived from a Complex-I deficient patient; test: Protection against oxidative stress-induced (BSO) cell death, Calcein-AM viability; assay type: cell-based
Excerpt: (§1) Methods: To assess the ability of the compounds to protect patient cells against oxidative stress-induced cell death an assay was established using stressed primary human fibroblasts derived from a Complex-I deficient patient. Utilizing the inherent oxidative stress of fibroblasts from patients with mitochondrial disease, their oxidative burden was further increased by depleting cellular glutathione with an inhibitor of glutathione synthesis, L-buthionine-(S,R)-sulfoximine (BSO).
Cells were seeded at a density of 3000 cells/well in a 96-well format plate and incubated with increasing concentrations of compounds in combination with BSO (200 μM, Sigma-Aldrich). Two days after treatment, the cells were washed twice and stained with a solution of 5 μM Calcein-AM (Life technologies C3100MP) during 25 min in 199 medium without phenol red (Life technologies, 11043-023) at 37° C., 5% CO2. After 2 washes with PBS the plate was read on a fluorescence plate reader (Fluostar Omega, BMG labtech) and the percentage of cell viability was determined as a function of fluorescence intensity (FIG. 2).

[5] = system: fibroblasts from healthy individuals; test: Effect of BSO on viability of fibroblasts from healthy individuals, Calcein-AM; assay type: cell-based, human; settings: BSO 200 μM, 48 h; FIG. 1
Description: FIG. 1. Effect of L-buthionine-(S,R)-sulfoximine (BSO), an inhibitor of glutathione synthesis, on the viability of primary human fibroblasts derived from healthy individuals or derived from Complex-I deficient patients. Two days after treatment of 48 h with 200 μM BSO, cells were washed and stained with Calcein-AM. Cell viability was determined as a function of fluorescence intensity.
as §1

Compound | H2O2-mediated induction of cellular ROS levels (CM-DCF fluorescence) [2] | superoxide scavenging / superoxide levels (HEt fluorescence) [3] | also measured
Cc1c(C)c2c(c(C)c1O)CCC(C)(C(=O)O)O2 (centres unmarked) [Trolox, 6-hydroxy-2,5,7,8-tetramethylchroman-2-carboxylic acid] | – | – | levels of ROS [1]: reduces the levels of ROS
COC1=C(OC)C(=O)C(CCCCCCCCCCO)=C(C)C1=O [Idebenone] | slightly diminished | only a limited ability to scavenge superoxide | –
CCCCS(=N)(=O)CCC(N)C(=O)O [BSO, L-buthionine-(S,R)-sulfoximine] | – | – | viability of patient fibroblasts after BSO insult ([4]; BSO 200 μM alone, within 48 h, FIG. 1): complete cell death; viability of fibroblasts from healthy individuals after BSO insult [5]: retained full viability
CC(C)=CCC/C(C)=C/CC/C(C)=C/CC[C@@](C)(O)CCC1=C(C)C(=O)C(C)=C(C)C1=O [EPI743] | slightly diminished | only a limited ability to scavenge superoxide | EC50 ([4]; 200 μM BSO, two days, Calcein-AM cell viability, formate salt, read-out: EC50 in protecting the cells against oxidative stress-induced cell death): 35.3 nM
